Measurements published in patent publication US12589090B2, “Compounds and methods for the treatment of degenerative disorders” (Aquilus Pharmaceuticals, Inc., priority 2019, dated 2026).
“Also recorded” adds a separate entry of the source.

Assays:
[1] = In-vivo oral rat pharmacokinetics (Example 15); conditions: male Sprague-Dawley rats, dose level 10 mg/kg, 0.5% MC, plasma, mean
Method: Understanding the pharmacokinetics in species typically employed in preclinical animal testing is an essential component of drug discovery. […] Procedure: Six (6) male Sprague-Dawley rats were used. Fasting was conducted at least 16 hours prior to dose administration. Food was returned at approximately 4 hours post dose. The animals were placed into 2 groups of 3 animals per group. The oral (PO) formulation for Groups 1 & 2 were prepared on the day of dosing at a target concentration of 0.5 mg/mL in 0.5% Methylcellulose (400 cps) to produce a white, homogeneous suspension. Dosing was performed as outlined in Table 1:
Whole blood samples (0.250 mL; K2EDTA anticoagulant) were collected from each animal through a jugular vein catheter. Whole blood samples were collected from all animals pre-dose, and at 0.25, 0.5, 1, 2, 4, 8, 16, and 24 hours after dose administration. All blood samples were immediately placed on ice until processing. Whole blood samples were centrifuged at 2200×g for 10 minutes in a refrigerated centrifuge (5±3° C.) to isolate plasma. The plasma samples were transferred to individual polypropylene vials and immediately placed on dry ice before storage at nominally −20±5° C. The plasma samples sometime later were then thawed and extracted and analyzed by high pressure liquid chromatography (HPLC) coupled to Mass Spectrometry (MS) (Table 2). Pharmacokinetic parameters (Table 3) were estimated using WinNonlin® pharmacokinetic software (Version No. 5.2.1) using a non-compartmental approach consistent with the PO route of administration.

Caspase 3 = Caspase 3 protein level in dorsal root ganglion of SNL rats via Western blotting (Examples 10, 17); format: in vivo, Sprague Dawley rats; conditions: Left DRG of SNL rats, 160 mg/Kg PO for 5 days, vs. Vehicle treated SNL rats, unpaired t-test
Excerpt: Western blotting is a widely used analytical technique used to detect specific proteins in a sample of tissue homogenate or extract. Before one can perform Western blotting one must develop a technique for extracting the protein to be measured from the target tissue. Below is an example of the measurement of Caspase 3 from rat dorsal root ganglion (DRG) using Western blotting.
Protein Extraction Preparation: Frozen DRG tissue samples were homogenized in a radioimmunoprecipitation assay (RIPA) buffer (75 μl per sample) using a handheld pestle homogenizer, 30 seconds on ice. Samples were cleared by centrifugation at 14,000 rpm for 15 minutes at 4° C. Supernatants were collected and protein amount was determined using Bio-Rad DC protein kit.
Western Blotting: Protein samples were denatured in Laemmli buffer/2-mercaptoethanol for 5 minutes at 95 C. Denatured protein samples were separated by SDS-PAGE. After electrophoresis, proteins were transferred from gel to LFP-PVDF membranes by electroblotting. […]
Antibody binding was detected using the ECL Plus Western Chemifluorescence Detection Kit (Cat #32132, ThermoFisher Scientific). […] The scanned images from the Typhoon were analyzed with ImageQuantTL software version 7.0 (GE Healthcare Bioscience, Piscataway, NJ). Band intensities were determined using the Rolling Ball method. […]

[2] = In-vivo oral PK of Compound 118 in SOD-1 mice (Example 19); set-up: species or system SOD-1-G93A (SOD-1) mice; conditions: for AUC / Cmax: SOD-1-G93A, mouse, po, PO 200 mg/Kg for 3 days
Method: The present example orally doses compound 118 once per day (SID) or twice per day (BID) for three days to a series of mice that have overexpression for the protein copper-zinc superoxide dismutase 1. Compound 118 was orally dosed in SOD-1-G93A (SOD-1) mice in a PK study. In summary, SOD-1 mice (At P100±4 days of age) received twice daily (BID) or once daily (SID) oral administration of 200 mg/Kg Compound 118 (as an aqueous suspension in 0.5% methylcellulose) for 3 days (Table 6). Plasma was collected from the tail vein at baseline (pre-dose), 15 min, 30 min, 1 h, 2 h, 4 h post-last PO dose on the third day. One animal from each group was euthanized 2 hrs. post dose on the third day of dosing where plasma, spinal cord, and brain tissue was collected post-mortem. The remaining 3 animals per group was euthanized six hours after the final dose on the third day, plasma, spinal cord, and brain tissue was then collected post-mortem. […] There was a significant difference in clearance of Compound 118 within plasma between male and female SOD-1 mice. […] Given the sex difference in clearance, it will be necessary to increase the amount that male SOD-1 mice are dosed compared to females SOD-1 mice in order maintain parity in exposure between the sexes.

[3] = female, plasma, 200 mg/kg, Female SOD-1 mice, BID
[4] = female, plasma, 200 mg/kg, Female SOD-1 mice, SID
[5] = male, plasma, 200 mg/kg, Male SOD-1 mice, BID
[6] = male, plasma, 200 mg/kg, Male SOD-1 mice, SID

SMILES: [2H]C([2H])([2H])c1ccc(C#Cc2ccc(S(=O)(=O)N[C@H](Cc3c[nH]c4ccccc34)C(=O)O)s2)cc1 [Compound 118, (R)-3-(1H-Indol-3-yl)-2-[5-(4-trideuteromethyl-phenylethynyl)-thiophene-2-sulfonylamino]-propionic acid-(D3, 98%)]
- AUC(0-inf) [1]: 7.73 µg·h/mL
- AUC(0-t) [1]: 7.68 µg·h/mL
- Cmax [1]: 2740 ng/mL
- half-life [1]: 1.47 h
- caspase 3 protein level in dorsal root ganglion (Western blotting) (Caspase 3): significant decrease of caspase 3 protein; also recorded: decrease in the caspase-3 protein levels
- AUC in Female SOD-1 mice relative to male SOD-1 mice ([2]; 200 mg/Kg PO, plasma): 3-4 times
- concentration in the spinal cord ([2]; SOD-1 mice, 200 mg/Kg PO, T=2 hour from last dose on third day): 200-400 ng of AQU-118/gram spinal tissue
- oral bioavailability in plasma ([2]; SOD-1 mice, 200 mg/Kg PO, 200 mg/kg): good oral bioavailability
- oral bioavailability in plasma ([2]; SOD-1 mice, 200 mg/Kg PO, listed as AQU-118, 200 mg/kg): good bioavailability in plasma
- AUC [2, 3]: 394 µg·h/mL
- Cmax [2, 3]: 111000 ng/mL
- AUC [2, 4]: 342 µg·h/mL
- Cmax [2, 4]: 96000 ng/mL
- AUC [2, 5]: 115 µg·h/mL
- Cmax [2, 5]: 39200 ng/mL
- AUC [2, 6]: 121 µg·h/mL
- Cmax [2, 6]: 44500 ng/mL
